Tests used:
Type in all cases: cell-based, human
paraxial mesoderm = test: Paraxial mesoderm induction, marker expression; conditions: during induction of paraxial mesoderm
Experimental: All differentiation was conducted in serum-free CDM2 basal medium in monolayer feeder-free conditions. hPSCs were sparsely passaged ˜1:15-1:20 as fine clumps (using Accutase) onto Geltrex (Gibco)-coated cell culture wells and cultured overnight in mTeSR1+1 μM thiazovivin. The following morning, hPSCs were differentiated towards anterior PS (30 ng/mL Activin+4 μM CHIR+20 ng/mL FGF2+100 nM PIK90; for subsequent paraxial differentiation) or mid PS (30 ng/mL Activin+40 ng/mL BMP4+6 μM CHIR+20 ng/mL FGF2+[…] differentiation) for 24 hrs. D1 anterior PS→D2 paraxial mesoderm (1 μM A8301+3 μM CHIR+250 nM LDN193189+20 ng/mL FGF2) for 24 hrs. D1 mid PS→D2 lateral mesoderm (1 μM A8301+30 ng/mL BMP4+1 μM C59) for 24 hrs.
(§1) Subsequently, day 1 anterior primitive streak was briefly washed (DMEM/F12) and differentiated towards day 2 paraxial mesoderm for 24 hours (1 μM A-83-01+3 μM CHIR99021+250 nM LDN-193189+20 ng/mL FGF2). Separately, day 1 mid primitive streak was differentiated towards day 2 lateral mesoderm for 24 hours (1 μM A-83-01+30 ng/mL BMP4+1 μM C59; with 2 μM SB-505124 sometimes used instead of A-83-01).

[1] = tested on: hESC-derived lateral mesoderm; test: Lateral mesoderm patterning, qPCR
Experimental: as §1
C) To reveal the possible identity of non-cardiac mesoderm lineages that were contaminating cardiac mesoderm-containing cultures, NKX2.5-GFP hESCs were differentiated towards mid primitive streak (day 1) and were differentiated towards a heterogeneous population containing cardiac mesoderm (day 3) by treatment with SB-505124+BMP4+C59 (without FGF2) on days 2-3 of differentiation. FACS was performed on day 3 to purify either NKX2.5-GFP^+ or NKX2.5-GFP^− cells (top subpanels) which were sorted for qPCR (bottom subpanels). Gene expression was normalized to expression of a gene in the NKX2.5-GFP^+ fraction (dotted line). D) Timecourse of gene expression in hESCs differentiating towards mid primitive streak and lateral mesoderm, with treatment by SB-505124+BMP4+C59 on days 2-3 of differentiation. […] G) To assess whether a stabilized vitamin C analog (ascorbic acid-2-phosphate) (AA2P) enhanced cardiac mesoderm differentiation into cardiomyocytes, day 4 hESC-derived cardiac mesoderm was exposed to BMP4 (30 ng/mL)+XAV939 (1 μM) for 48 hours in the presence or absence of 200 μg/mL AA2P and qPCR was conducted of day 6 populations; qPCR data were normalized such that expression values in the highest-expressing sample was normalized=1.0. […] J) In the mouse embryo, endocardium (progenitors to heart-affiliated endothelium) are marked by transient coexpression of pan-heart marker Nkx2.5 together with endothelial markers (Ferdous et al., 2009; Stanley et al., 2002).

day 6 sclerotome = test: Sclerotome differentiation towards cartilage
Experimental: Day 6 sclerotome was briefly washed (DMEM/F12) and treated with BMP4 (20 ng/mL) for 72-144 hours, leading to day 9 or day 12 cartilage-like progeny. Media was changed every 24 hours.
hPSC-derived cartilage progeny were stained with safranin-O to assess their production of acidic proteoglycans, which is a key trademark of cartilage phenotypic function. Safranin-O staining was conducted in accord with standard procedures. Namely, hPSC-derived cartilage progeny at day 12 of differentiation (day 6 sclerotome treated with chondrogenic BMP4 for 6 further days) were fixed (with 4% formaldehyde, for 10 minutes at room temperature), washed twice in PBS, briefly treated with 1M acetic acid for 15 seconds, stained with 1% safranin-O solution for 10 minutes, washed with PBS, and wide-field visualization was performed with a dissecting microscope (Leica M205 FA).
FIG. 11: A) To determine the length of time required for sclerotome differentiation, a qPCR timecourse was performed, encompassing undifferentiated hESCs (D0), day 2 hESC-derived paraxial mesoderm (D2 PXM), day 3 hESC-derived early somite progenitors, and hESC-derived day 3 early somite progenitors that were exposed to sclerotome inductive conditions (5 nM 21K+1 μM C59) for 24 or 48 hours. B) Description of EF1α-BCL2-T2A-GFP lentiviral construct (otherwise known as “C306”; top) and FACS plot of a stably-transduced polyclonal H9 hESC line with near-uniform expression of the BCL2-T2A-GFP transgene (green contour) by comparison to uncolored wild-type hESCs (bottom) (see above methods for details of derivation of the H9 BCL2-T2A-GFP hESC line). C) Higher-magnification picture of BCL2-T2A-GFP hESC-derived sclerotome ectopic bone grafts (originally described above in FIG. 4, panel E), showing that despite the near-ubiquitous expression of GFP throughout the ectopic bone graft (indicating its human provenance), the blood vessels are clearly GFP-negative and therefore presumably derived from the mouse host; scale bar=1 mm. […]

lateral mesoderm = test: Forelimb versus hindlimb progenitor specification from lateral mesoderm; conditions: day 2-3, in the context of BMP and WNT activation
Experimental: Undifferentiated hPSCs (wild-type H7 as well as TBX5-Venus V19-2 H9 hESCs) were maintained in mTeSR1 media on Geltrex-coated plates. As described, they were differentiated into mid primitive streak for 24 hours (D0-1; 30 ng/mL Activin+40 ng/mL BMP4+6 μM CHIR99021+20 ng/mL FGF2+100 nM PIK90) and subsequently differentiated into lateral mesoderm (D1-2; 1 μM A-83-01+30 ng/mL BMP4+1 μM C59), with the inclusion of 50 nM of TTNPB or 2 μM ATRA on D1-2 for trunk lateral mesoderm that was subsequently competent for forelimb differentiation.
Day 2 trunk lateral mesoderm was differentiated into day 3 forelimb progenitors (D2-3; 1 μM A-83-01+1 μM DMH1+3 μM CHIR99021). By contrast, day 2 non-trunk lateral mesoderm was differentiated into day 3 hindlimb progenitors (D2-3; 25 ng/mL Activin+1 μM DMH1+3 μM CHIR99021).

Molecule: Cc1cnc(-c2cnc(NCCNc3ccc(C#N)cn3)nc2-c2ccc(Cl)cc2Cl)[nH]1 [CHIR99021, 6-[[2-[[4-(2,4-Dichlorophenyl)-5-(5-methyl-1H-imidazol-2-yl)-2-pyrimidinyl]amino]ethyl]amino]-3-pyridinecarbonitrile]
- marker expression (paraxial mesoderm; at 4 μM): undesired decrease in marker expression
- critical concentration (paraxial mesoderm): less than 4 μM
- lateral mesoderm fate (qPCR) ([1]; day 2 lateral mesoderm, SB-505124+BMP4 with CHIR99021 or C59, 24 hours): specified a posterior lateral mesoderm/forelimb bud fate (PRRX1)
- pan-lateral mesoderm marker FOXF1 expression ([1]; last 12 hrs C59 or 3 μM CHIR in addition to BS): not markedly changed

B1: BMP4: BMP family ligand, BMP agonist (protein, UniProt P12644 293-408, looked up)
Bone morphogenetic protein 4: SPKHHSQRARKKNKNCRRHSLYVDFSDVGWNDWIVAPPGYQAFYCHGDCPFPLADHLNSTNHAIVQTLVNSVNSSIPKACCVPTELSAISMLYLDEYDKVVLKNYQEMVVEGCGCR
- EPIPHYCAN and AGGRECAN expression (timecourse qPCR) (day 6 sclerotome; BMP4 20 ng/mL): only upregulated after prolonged BMP treatment
- SOX9 expression (timecourse qPCR) (day 6 sclerotome; BMP4 20 ng/mL): rapidly downregulated
- cartilage fate (COL2A1, AGGRECAN, EPIPHYCAN, COMP) (day 6 sclerotome; BMP4 for 3 further days, day 9): differentiated towards a cartilage fate

B2: Activin: TGFβ agonist (protein, UniProt P08476 311-426, looked up)
Inhibin beta A chain: GLECDGKVNICCKKQFFVSFKDIGWNDWIIAPSGYHANYCEGECPSHIAGTSGSSLSFHSTVINHYRMRGHSPFANLKSCCVPTKLRPMSMLYYDDGQNIIKKDIQNMIVEECGCS
modifications: Inhibin beta A chain
notes: TGFβ agonist
- hindlimb transcription factors TBX4 and PITX1 expression (lateral mesoderm): strongly induced the hindlimb transcription factors TBX4 and PITX1

Source: patent US10787640B2, “Producing mesodermal cell types and methods of using the same” (The Board of Trustees of the Leland Stanford Junior …, priority 2015, dated 2020)
